The results in this text go back to ChEMBL document CHEMBL3259787, “Discovery of two aminoglycoside antibiotics as inhibitors targeting the menin-mixed lineage leukaemia interface” (Bioorg Med Chem Lett, 2014).

For one test, the target named is T1, Menin (Homo sapiens, UniProt O00255).
T1 sequence (O00255 whole entry): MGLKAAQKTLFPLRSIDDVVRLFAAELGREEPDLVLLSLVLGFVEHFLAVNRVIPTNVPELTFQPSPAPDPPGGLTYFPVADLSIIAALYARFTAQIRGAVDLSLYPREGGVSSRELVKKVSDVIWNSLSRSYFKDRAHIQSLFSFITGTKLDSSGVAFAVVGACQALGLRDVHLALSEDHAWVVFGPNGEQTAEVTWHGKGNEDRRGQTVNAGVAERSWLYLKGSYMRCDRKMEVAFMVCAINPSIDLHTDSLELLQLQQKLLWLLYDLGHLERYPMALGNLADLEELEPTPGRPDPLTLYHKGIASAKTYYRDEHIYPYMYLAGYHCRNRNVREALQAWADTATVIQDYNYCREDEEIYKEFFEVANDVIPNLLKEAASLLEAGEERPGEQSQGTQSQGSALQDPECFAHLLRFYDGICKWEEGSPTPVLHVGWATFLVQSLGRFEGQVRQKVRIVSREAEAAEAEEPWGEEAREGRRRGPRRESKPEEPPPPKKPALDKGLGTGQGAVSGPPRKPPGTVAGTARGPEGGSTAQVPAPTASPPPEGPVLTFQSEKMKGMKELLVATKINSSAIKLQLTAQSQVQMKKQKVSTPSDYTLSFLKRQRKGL
Briefly: (§1) Binding affinity to menin (unknown origin) by isothermal titration calorimetry analysis.

A short description of test [1]: Inhibition of N-terminal FITC-labeled MBM1 interaction to menin (unknown origin) after 1 hr by fluorescence polarization assay. Set-up: species or system Homo sapiens. For orientation: In fluorescence polarisation assays a small probe gives low polarisation when free and higher when bound to something large.
For test [2], the target named is T2, Menin (Homo sapiens) (UniProt O00255).
T2 sequence (whole entry): T1 sequence (O00255 whole entry)
The experiment in a line: Binding affinity to menin (unknown origin) assessed as thermal stability at 200 uM by differential scanning fluorimetry (reference value: 40.46 degC). A general note: In DSF a fluorescence change marks the thermal transition of the protein.

For test [3], the target named is T2, Menin (Homo sapiens). Briefly: Binding affinity to menin (unknown origin) assessed as thermal stability at 50 uM by differential scanning fluorimetry (reference value: 40.46 degC).
The target of test [4] is T2, Menin (Homo sapiens). The experiment in a line: Binding affinity to menin (unknown origin) assessed as thermal stability at 400 uM by differential scanning fluorimetry (reference value: 40.46 degC).
The target of test [5] is T2, Menin (Homo sapiens). The description is as §1.

pKd, pKi: −log10 of the molar value. Active and inactive are the calls of the source. The calls are words filed in the database; no cut-off is given here.

Usually pKd stands for −log10 of the Kd, conventionally taken in molar units. High values mean a low Kd, low ones a high Kd. For orientation: pKi means the negative decadic logarithm of the Ki, by convention in mol/L.

Turning to `NC[C@@H]1O[C@H](O[C@H]2[C@@H](O)[C@H](O[C@@H]3[C@@H](O)[C@H](N)C[C@H](N)[C@H]3O[C@H]3O[C@H](CN)[C@@H](O)[C@H](O)[C@H]3N)O[C@@H]2CO)[C@H](N)[C@@H](O)[C@@H]1O` [FRAMYCETIN], the pKd on Menin was 4.81. The pKi in test [1] was 4.73. Besides, the results for the Tm on Menin (Homo sapiens) [2], at Menin (Homo sapiens) [3] and at Menin (Homo sapiens) [4] were 43.8 °C, 42.5 °C and 45.2 °C, respectively.
Regarding `NC[C@H]1O[C@H](O[C@H]2[C@H](O)[C@@H](O[C@H]3O[C@H](CO)[C@@H](O)[C@H](N)[C@H]3O)[C@H](N)C[C@@H]2N)[C@H](N)C[C@@H]1O` [TOBRAMYCIN], the outcome at Menin (Homo sapiens) [5] was inactive. The pKi in test [1] is 4.22. Also, the values for the Tm on Menin (Homo sapiens) [2], on Menin (Homo sapiens) [3] and at Menin (Homo sapiens) [4] were 42.6 °C, 41.4 °C and 43.4 °C, respectively.
